Data as given in PMC10674565 (Pharmaceuticals, 2023).
Blank lines part the entries; values can stand above or below the molecule they belong to.

What was measured:
[1] = design: method as in earlier work; details: liver metabolites of EMHPS; cited from earlier work
[2] = target: ABCB1 (Homo sapiens, UniProt P08183); assay: Effect on ABCB1-mediated transport of fexofenadine through the Caco-2 cells monolayer; details: all tested concentrations (1–200 µM), Caco-2 monolayer
Procedure: Transport experiments were carried out in Transwell® systems (12 mm Transwell® with 0.4 µm Pore Polycarbonate Membrane Insert, Sterile, «Corning»). The Transwell® system consists of two chambers, apical and basolateral. […] The medium was changed every 2–3 days. The apical and basolateral chambers represent the luminal and blood/mesenteric lymph sides of the gastrointestinal tract, respectively.
The transepithelial electrical resistance (TEER) across the cell monolayers was monitored using a Millicell-ERS (electrical resistance system) to assess cell monolayer integrity. For transport studies, only monolayers with a TEER > 500 Ω cm^2 were used.
To study the roles of different parts of the EMHPS molecule for its action on ABCB1, experiments with succinic acid were also carried out.
Prior to the transport experiments, the culture media was aspirated, and the monolayers were washed twice with transport medium and preincubated with EMHPS, succinic acid, or verapamil for 30 min.
The data are presented as the mean ± SD from three monolayers.
The resulting sample of the transport medium (50 μL) was diluted in 150 μL of the mobile phase, and 100 μL of the resulting solution was injected into the chromatograph. A Phenomenex Synergi 4u Polar-RP 80A (250 × 4.6) chromatographic column was used for analysis. The separation temperature was 35 °C; the flow rate was 1 mL/min. Composition of the mobile phase: acetonitrile (128 mL), deionized water (267.4 mL), acetic acid (6.33 mL), triethylamine to pH = 6.7. […] Detection was carried out at a wavelength of 220 nm.
Half maximal inhibitory concentration (IC50) values were determined through nonlinear regression based on the three-parameter logistic function.

[3] = target: T1, SLCO1B1 (Homo sapiens, UniProt Q9Y6L6); assay: Inhibition of SLCO1B1-mediated uptake of atorvastatin in HEK293-SLCO1B1 cells; format: in vitro ADME; design: The SLCO1B1 gene was obtained via synthesis and was cloned into the pEGFP-N1 vector; expressed in transfected cells; host or cells: HEK293
T1 sequence (Q9Y6L6 1-691): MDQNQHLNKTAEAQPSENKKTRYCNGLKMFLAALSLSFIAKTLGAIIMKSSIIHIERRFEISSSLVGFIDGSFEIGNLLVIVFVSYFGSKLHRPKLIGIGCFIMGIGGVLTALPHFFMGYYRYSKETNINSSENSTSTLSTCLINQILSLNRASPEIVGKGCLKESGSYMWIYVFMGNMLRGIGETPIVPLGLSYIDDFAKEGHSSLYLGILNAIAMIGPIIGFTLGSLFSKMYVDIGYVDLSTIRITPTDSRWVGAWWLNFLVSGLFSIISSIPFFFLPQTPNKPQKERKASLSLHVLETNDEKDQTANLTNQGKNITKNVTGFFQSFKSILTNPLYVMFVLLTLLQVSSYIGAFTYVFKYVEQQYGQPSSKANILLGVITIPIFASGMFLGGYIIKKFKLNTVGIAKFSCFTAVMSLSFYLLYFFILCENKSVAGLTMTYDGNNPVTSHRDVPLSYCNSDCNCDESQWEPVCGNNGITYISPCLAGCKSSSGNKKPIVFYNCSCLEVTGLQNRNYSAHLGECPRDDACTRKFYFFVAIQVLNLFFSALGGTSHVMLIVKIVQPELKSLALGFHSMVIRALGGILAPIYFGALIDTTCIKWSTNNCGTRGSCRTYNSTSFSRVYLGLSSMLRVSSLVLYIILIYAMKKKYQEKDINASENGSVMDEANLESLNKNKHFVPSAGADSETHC
Procedure: As a positive inhibition control, rifampicin at similar concentrations was used. Three independent experiments were performed. […] Proteins were precipitated by adding acetonitrile in a 1:1 ratio to the sample. […] The mobile phase gradient program was as follows: 0-0.6 min-35% A and 65% B, 0.6-5.0 min-5% A and 95% B, 5.0-8.0 min-35% A and 65% B. The flow rate and the column temperature were maintained at 300 μL/min and 35 °C. Aliquots (2 μL) of the extracted samples were injected.

[4] = human, HEK293-SLCO1B1 cells, pH 7.4, probe atorvastatin 1 µM

Sequence of ABCB1 (P08183 whole entry): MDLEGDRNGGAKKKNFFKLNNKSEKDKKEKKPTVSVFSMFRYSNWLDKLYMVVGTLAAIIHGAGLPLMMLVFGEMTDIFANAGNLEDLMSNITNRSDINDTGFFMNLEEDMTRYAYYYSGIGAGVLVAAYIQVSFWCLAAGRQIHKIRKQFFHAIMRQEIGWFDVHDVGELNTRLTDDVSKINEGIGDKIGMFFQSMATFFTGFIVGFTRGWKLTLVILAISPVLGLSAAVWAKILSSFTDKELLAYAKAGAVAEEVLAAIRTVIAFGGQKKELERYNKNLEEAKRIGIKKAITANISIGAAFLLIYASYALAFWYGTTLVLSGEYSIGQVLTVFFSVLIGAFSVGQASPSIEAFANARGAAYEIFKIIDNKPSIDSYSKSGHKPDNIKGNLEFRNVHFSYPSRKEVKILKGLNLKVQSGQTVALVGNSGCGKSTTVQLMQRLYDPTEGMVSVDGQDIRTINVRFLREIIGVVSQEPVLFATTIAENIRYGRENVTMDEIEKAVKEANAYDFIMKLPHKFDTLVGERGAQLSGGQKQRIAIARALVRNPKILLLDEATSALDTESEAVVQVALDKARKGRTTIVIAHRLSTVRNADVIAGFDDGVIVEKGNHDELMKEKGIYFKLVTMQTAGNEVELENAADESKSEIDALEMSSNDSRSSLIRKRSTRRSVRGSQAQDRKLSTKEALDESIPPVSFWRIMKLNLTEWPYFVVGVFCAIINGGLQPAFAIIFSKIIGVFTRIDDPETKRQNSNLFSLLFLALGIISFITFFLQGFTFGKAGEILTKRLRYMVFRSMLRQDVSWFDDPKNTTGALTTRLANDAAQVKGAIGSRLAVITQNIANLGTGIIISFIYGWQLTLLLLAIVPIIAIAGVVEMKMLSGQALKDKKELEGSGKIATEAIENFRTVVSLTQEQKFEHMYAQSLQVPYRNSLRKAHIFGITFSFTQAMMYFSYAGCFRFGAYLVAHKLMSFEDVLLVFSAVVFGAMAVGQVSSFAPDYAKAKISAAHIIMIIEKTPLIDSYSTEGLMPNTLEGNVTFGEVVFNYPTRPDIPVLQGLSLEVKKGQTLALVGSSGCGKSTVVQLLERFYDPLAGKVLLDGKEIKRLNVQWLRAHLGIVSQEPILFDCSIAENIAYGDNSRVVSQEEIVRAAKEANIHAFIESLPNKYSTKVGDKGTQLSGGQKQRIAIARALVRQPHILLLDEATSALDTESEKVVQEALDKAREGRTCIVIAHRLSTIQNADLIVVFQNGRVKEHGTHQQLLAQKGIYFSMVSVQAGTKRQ

Compound: CCc1nc(C)ccc1O[C@@H]1O[C@H](C(=O)O)[C@@H](O)[C@H](O)[C@H]1O [2-ethyl-6-methyl-3-hydroxypyridine glucuronide]
- pharmacological activity [1]: no pharmacological activity

Compound: CCc1nc(C)ccc1O.O=P(O)(O)O [2-ethyl-6-methyl-3-hydroxypyridine phosphate]
- pharmacological activity [1]: no pharmacological activity

Compound: O=C(O)CCC(=O)O [succinic acid]
- effect on Papp b-a, Papp a-b, and ER of fexofenadine transport [2]: did not have a significant effect
- effect on SLCO1B1 activity ([3]; all tested concentrations (1–500 µM), uptake of 1 µM atorvastatin): did not have a significant effect

- IC50 [3]: 2510 ± 1350 nM
- inhibition at 100 µM [3, 4]: 91.2%
- inhibition at 500 µM [3, 4]: 95.4%
Compound: CO[C@H]1/C=C/O[C@@]2(C)Oc3c(C)c(O)c4c(O)c(c(/C=N/N5CCN(C)CC5)c(O)c4c3C2=O)NC(=O)/C(C)=C\C=C\[C@H](C)[C@H](O)[C@@H](C)[C@@H](O)[C@@H](C)[C@H](OC(C)=O)[C@@H]1C [rifampicin]
